Laboratory results as given in the supplement of paper PMC10307832.

Key:
Assay in all cases: relative viability (nuclei count vs DMSO), 5 days (fraction); higher = more cells survive
[1] = compound: C=CC(=O)N1CCC[C@@H](n2nc(-c3ccc(Oc4ccccc4)cc3)c3c(N)ncnc32)C1 [Ibrutinib] + Cc1nc(Nc2ncc(C(=O)Nc3c(C)cccc3Cl)s2)cc(N2CCN(CCO)CC2)n1 [Dasatinib] (partner 0.075 µM)
Method in brief: (§1)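 For relative viability, nuclei counts in treated wells were divided by those in vehicle wells. Lung cancer cell lines had been pin-tool dosed in 1536-well plates the day after seeding and cultured for 5 days, then fixed and stained in one step (final 0.05% Triton X-100, 1% formaldehyde, 1 ug/ml Hoechst) and imaged at 4×. Doses were one drug alone or a fixed anchor-drug dose plus five library-drug doses (not always all listed) in √10 steps, and values are duplicate-plate medians.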

[2] = compound: C=CC(=O)Nc1cc(-n2c(=O)ccc3cnc4ccc(-c5ccc(NS(C)(=O)=O)cc5)cc4c32)ccc1C [BMX-IN-1] + COc1cccc2cc(-c3nc([C@H]4CC[C@H](C(=O)O)CC4)n4ncnc(N)c34)[nH]c12 [OSI-027] (partner 0.5 µM)
Method in brief: as §1

[3] = compound: C=CCc1cccc(/C=N/NC(=O)CN2CCN(Cc3ccccc3)CC2)c1O [PAC-1] + C[C@]1(O)C[C@@H](c2nc(-c3ccc4ccc(-c5ccccc5)nc4c3)c3c(N)nccn32)C1 [Linsitinib] (partner 1 µM)
Method in brief: as §1

[4] = compound: C=CC(=O)N1CCC[C@@H](n2nc(-c3ccc(Oc4ccccc4)cc3)c3c(N)ncnc32)C1 [Ibrutinib] + CC1(C)CCC(c2ccc(Cl)cc2)=C(CN2CCN(c3ccc(C(=O)NS(=O)(=O)c4ccc(N[C@H](CCN5CCOCC5)CSc5ccccc5)c(S(=O)(=O)C(F)(F)F)c4)cc3)CC2)C1 [Navitoclax] (partner 0.5 µM)
Method in brief: as §1

Cell Line | relative viability ([1]; first compound 0.005 µM) | relative viability ([1]; first compound 0.01581 µM) | relative viability ([1]; first compound 0.05 µM) | relative viability ([1]; first compound 0.1581 µM) | relative viability ([1]; first compound 0.5 µM) | relative viability ([2]; first compound 0.02 µM) | relative viability ([2]; first compound 0.2 µM) | relative viability ([2]; first compound 0.6325 µM) | relative viability ([2]; first compound 2 µM) | relative viability ([3]; first compound 0.02 µM) | relative viability ([3]; first compound 0.06325 µM) | relative viability ([3]; first compound 0.2 µM) | relative viability ([3]; first compound 2 µM) | relative viability ([4]; first compound 0.005 µM) | relative viability ([4]; first compound 0.01581 µM) | relative viability ([4]; first compound 0.05 µM) | relative viability ([4]; first compound 0.1581 µM) | relative viability ([4]; first compound 0.5 µM)
NCI-H522 | 0.744 | 0.584 | 0.731 | 0.773 | 0.723 | 0.673 | 0.74 | 0.696 | 0.732 |  |  |  |  |  |  |  |  | 
NCI-H1563 | 0.431 | 0.456 | 0.507 | 0.46 | 0.415 | 0.838 | 0.757 | 0.697 | 0.642 | 1.15 | 1.32 | 1.28 | 1.19 |  |  |  |  | 
NCI-H1623 | 0.604 | 0.515 | 0.461 | 0.316 | 0.244 | 0.42 | 0.456 | 0.528 | 0.409 |  |  |  |  |  |  |  |  | 
HCC-44 |  |  |  |  |  | 0.617 | 0.515 | 0.56 | 0.474 | 0.684 | 0.68 | 0.678 | 0.712 | 0.977 | 0.913 | 0.935 | 0.995 | 0.919
IA-LM |  |  |  |  |  |  |  |  |  | 0.771 | 0.716 | 0.639 | 0.58 | 0.768 | 0.853 | 0.79 | 0.79 | 0.951
EBC-1 |  |  |  |  |  |  |  |  |  | 0.832 | 0.923 | 0.821 | 0.86 | 0.441 | 0.433 | 0.516 | 0.349 | 0.388
NCI-H358 | 0.149 |  | 0.136 | 0.152 | 0.0966 | 0.942 | 0.79 | 1.04 | 0.75 | 0.657 | 0.786 | 0.709 | 0.506 |  |  |  |  | 
